The supplement of paper PMC10307832

Legend:
Assay in all cases: relative viability (nuclei count vs DMSO), 5 days (fraction); higher = more cells survive
BAM7 + AZD7762 = compound: CCOC1=CC=CC=C1N=NC2=C(NN(C2=O)C3=NC(=CS3)C4=CC=CC=C4)C [BAM7] + NC(=O)Nc1cc(-c2cccc(F)c2)sc1C(=O)N[C@H]1CCCNC1 [AZD7762] (partner 0.2 µM)
Method in brief: (§1)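 Lung cancer cell lines, seeded in 1536-well plates, were treated the following day by pin tool with a single drug or with five library-drug doses (not always all listed) in √10 steps on top of a fixed anchor-drug dose. Cells were fixed and nuclei stained in one step after 5 days, and nuclei were counted. Relative viability is the nuclei count for treated wells divided by that for vehicle wells, reported as medians of duplicate plates.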

[1] = compound: CCn1c(-c2nonc2N)nc2c(C#CC(C)(C)O)ncc(OC[C@H]3CCCNC3)c21 + N=C(N)NC(=N)NCCc1ccccc1 [Phenformin] (partner 250 µM)
Method in brief: as §1

BAM7 + Tozasertib = compound: CCOC1=CC=CC=C1N=NC2=C(NN(C2=O)C3=NC(=CS3)C4=CC=CC=C4)C [BAM7] + Cc1cc(Nc2cc(N3CCN(C)CC3)nc(Sc3ccc(NC(=O)C4CC4)cc3)n2)n[nH]1 [Tozasertib] (partner 0.1 µM)
Method in brief: as §1

BAM7 + Pemetrexed = compound: CCOC1=CC=CC=C1N=NC2=C(NN(C2=O)C3=NC(=CS3)C4=CC=CC=C4)C [BAM7] + Nc1nc2[nH]cc(CCc3ccc(C(=O)N[C@@H](CCC(=O)O)C(=O)O)cc3)c2c(=O)[nH]1 [Pemetrexed] (partner 0.2 µM)
Method in brief: as §1

Cell Line | relative viability (BAM7 + AZD7762; first compound 0.5 µM) | relative viability (BAM7 + AZD7762; first compound 5 µM) | relative viability (BAM7 + AZD7762; first compound 15.81 µM) | relative viability (BAM7 + AZD7762; first compound 50 µM) | relative viability ([1]; first compound 0.01 µM) | relative viability ([1]; first compound 0.03162 µM) | relative viability ([1]; first compound 0.1 µM) | relative viability ([1]; first compound 0.3162 µM) | relative viability ([1]; first compound 1 µM) | relative viability (BAM7 + Tozasertib; first compound 0.5 µM) | relative viability (BAM7 + Tozasertib; first compound 5 µM) | relative viability (BAM7 + Tozasertib; first compound 15.81 µM) | relative viability (BAM7 + Tozasertib; first compound 50 µM) | relative viability (BAM7 + Pemetrexed; first compound 0.5 µM) | relative viability (BAM7 + Pemetrexed; first compound 5 µM) | relative viability (BAM7 + Pemetrexed; first compound 15.81 µM) | relative viability (BAM7 + Pemetrexed; first compound 50 µM)
NCI-H1793 | 0.544 | 0.341 | 0.428 | 0.426 | 0.339 | 0.436 | 0.371 | 0.331 | 0.401 | 0.274 | 0.269 | 0.223 | 0.262 | 0.931 | 0.728 | 0.809 | 1.13
NCI-H1915 | 0.676 | 0.671 | 0.759 | 0.741 | 0.384 | 0.385 | 0.36 | 0.357 | 0.36 | 0.443 | 0.4 | 0.405 | 0.399 | 0.425 | 0.505 | 0.524 | 0.46
NCI-H1944 | 0.51 | 0.525 | 0.508 | 0.623 | 0.196 | 0.196 | 0.207 | 0.181 | 0.196 | 0.25 | 0.253 | 0.257 | 0.257 | 0.581 | 0.541 | 0.512 | 0.512
NCI-H1975 | 0.725 | 0.763 | 0.642 | 0.632 | 0.4 | 0.394 | 0.393 | 0.389 | 0.352 | 0.41 | 0.512 | 0.465 | 0.512 | 0.292 | 0.276 | 0.269 | 0.288
NCI-H1993 | 0.814 | 0.624 | 0.495 | 0.665 | 0.485 | 0.47 | 0.5 | 0.478 | 0.495 | 0.564 | 0.639 | 0.582 | 0.505 | 0.62 | 0.529 | 0.5 | 0.581
NCI-H2085 | 0.967 | 0.709 | 0.915 | 0.991 | 0.627 | 0.694 | 0.674 | 0.706 | 0.719 | 0.608 | 0.496 | 0.401 | 0.567 | 1.02 | 0.675 | 0.844 | 0.992
NCI-H2087 | 1.34 | 1.47 | 1.25 | 1.07 | 0.454 | 0.572 | 0.478 | 0.43 | 0.465 | 0.227 | 0.244 | 0.211 | 0.205 | 0.671 | 0.627 | 0.653 | 0.646
NCI-H2126 | 0.804 | 0.983 | 1.03 | 0.936 | 0.565 | 0.498 | 0.513 | 0.496 | 0.478 | 0.836 | 0.679 | 0.643 | 0.74 | 0.746 | 0.672 | 0.574 | 0.641
NCI-H2170 | 0.652 | 0.691 | 0.614 | 0.804 | 0.44 | 0.429 | 0.416 | 0.429 | 0.382 | 0.664 | 0.748 | 0.501 | 0.793 | 0.252 | 0.281 | 0.251 | 0.269
NCI-H2342 | 0.53 | 0.61 | 0.431 | 0.388 | 0.532 | 0.627 | 0.598 | 0.545 | 0.574 | 0.453 | 0.519 | 0.387 | 0.374 | 0.677 | 0.712 | 0.734 | 0.72
NCI-H2347 | 0.768 | 0.657 | 0.902 | 0.794 | 0.442 | 0.307 |  | 0.381 | 0.396 | 0.75 | 0.426 |  | 0.525 | 0.426 | 0.424 | 0.422 | 0.415
NCI-H2405 | 0.832 | 0.862 | 0.811 | 0.758 | 0.402 | 0.385 | 0.295 | 0.355 | 0.344 | 0.721 | 0.809 | 0.73 | 0.721 | 1.11 | 1.06 | 1.09 | 1.11
NCI-H3122 | 0.946 | 1.13 | 0.918 | 0.846 | 0.401 | 0.364 | 0.447 | 0.389 | 0.374 | 0.44 | 0.387 | 0.351 | 0.324 | 0.194 | 0.191 | 0.196 | 0.195
PC-3 [JPC-3] | 0.889 | 0.74 | 0.64 | 0.686 | 0.504 | 0.451 | 0.469 | 0.463 | 0.474 | 0.776 | 0.7 | 0.72 | 0.735 | 1.17 | 1.13 | 1.05 | 1.08
PC-14 | 0.356 | 0.317 | 0.334 | 0.374 | 0.448 | 0.519 | 0.597 | 0.531 | 0.609 | 0.58 | 0.595 | 0.591 | 0.557 | 0.128 | 0.129 | 0.142 | 0.165
RERF-LC-KJ | 0.992 | 1.11 | 0.855 | 0.627 | 0.391 | 0.408 | 0.438 | 0.356 | 0.416 | 0.413 | 0.264 | 0.231 | 0.249 | 0.518 | 0.53 | 0.464 | 0.529
SW 900 |  | 0.592 |  | 0.691 | 0.505 | 0.621 | 0.671 | 0.601 | 0.49 | 0.48 | 0.556 | 0.475 | 0.562 |  | 0.44 |  | 0.505
